Experimental data from patent publication US12479831B2, “Substituted N(-methyl-D3)pyridazine-3-carboxamide or M-(methyl-D3)-nicotinamide compounds as IL-12, IL-23 and/or IFNα modulators” (BRISTOL-MYERS SQUIBB COMPANY, priority 2020, dated 2025).

What follows are molecules tested on IFNα-Induced STAT Phosphorylation in Human Whole Blood (assay: IFNα-Induced STAT Phosphorylation in Human Whole Blood). Settings: 1 h incubation with compound, 1000 U/mL recombinant human IFNα A/D for 15 min, pSTAT5 (pY694) median fluorescence intensity in CD3 positive population, read-out: hWB IC50.
Assay type: cell-based
Procedure: IFNα-Induced STAT Phosphorylation in Human Whole Blood
After an hour long incubation with compound, human whole blood (drawn with either EDTA or ACD-A as anti-coagulant) was stimulated with 1000 U/mL recombinant human IFNα A/D (R&D Systems 11200-2) for 15 min. The stimulation was stopped by adding Fix/Lyse buffer (BD 558049). Cells were stained with a CD3 FITC antibody (BD 555916), washed, and permeabilized on ice using Perm III buffer (BD 558050). […] The amount of pSTAT5 expression was quantitated by median fluorescence intensity after gating on the CD3 positive population.
IFNα-Induced STAT Phosphorylation in Human Whole Blood Inhibition Data

Row | Structure (SMILES) | IC50
1 | [2H]C([2H])([2H])NC(=O)c1nnc(NC(=O)C2CC2)cc1Nc1cccc(-c2cnc(N3CCN(C(C)=O)CC3)cn2)c1OC [Example 59, 4-((3-(5-(4-acetylpiperazin-1-yl)pyrazin-2-yl)-2-methoxyphenyl)amino)-6-(cyclopropanecarboxamido)-N-(methyl-d3)pyridazine-3-carboxamide] | 121 nM
2 | [2H]C([2H])([2H])NC(=O)c1nnc(NC(=O)C2CC2)cc1Nc1cccc(-c2ncc(C(=O)N3CCC3)cn2)c1OC [Example 48, 4-((3-(5-(azetidine-1-carbonyl)pyrimidin-2-yl)-2-methoxyphenyl)amino)-6-(cyclopropanecarboxamido)-N-(methyl-d3)pyridazine-3-carboxamide] | 118 nM
3 | [2H]C([2H])([2H])NC(=O)c1nnc(NC(=O)C2CC2)cc1Nc1cccc(-c2ncc(N3CCOCC3=O)cn2)c1OC [Example 117] | 111 nM
4 | [2H]C([2H])([2H])NC(=O)c1nnc(NC(=O)C2CCC2)cc1Nc1cccc(-c2ncccn2)c1OC [Example 4, 6-(cyclobutanecarboxamido)-4-((2-methoxy-3-(pyrimidin-2-yl)phenyl)amino)-N-(methyl-d3)pyridazine-3-carboxamide] | 348 nM
5 | [2H]C([2H])([2H])NC(=O)c1nnc(Nc2cc(C(C)(C)O)ccn2)cc1Nc1cc(F)cc(-c2ncccn2)c1OC [Example 105, 4-((5-fluoro-2-methoxy-3-(pyrimidin-2-yl)phenyl)amino)-6-((4-(2-hydroxypropan-2-yl)pyridin-2-yl)amino)-N-(methyl-d3)pyridazine-3-carboxamide] | 172 nM
6 | [2H]C([2H])([2H])NC(=O)c1cnc(Nc2ccn(C3CC3)n2)cc1Nc1cccc(-c2ncccn2)c1OC [Example 69, 6-((1-cyclopropyl-1H-pyrazol-3-yl)amino)-4-((2-methoxy-3-(pyrimidin-2-yl)phenyl)amino)-N-(methyl-d3)nicotinamide] | 56 nM
7 | [2H]C([2H])([2H])NC(=O)c1nnc(NC(=O)C2CC2)cc1Nc1cccc(-c2cnc(C(C)(O)CF)cn2)c1OC (stereo not drawn) [Example 35, 6-(cyclopropanecarboxamido)-4-((3-(5-(1-fluoro-2-hydroxypropan-2-yl)pyrazin-2-yl)-2-methoxyphenyl)amino)-N-(methyl-d3)pyridazine-3-carboxamide] | 107 nM
8 | [2H]C([2H])([2H])NC(=O)c1nnc(Nc2cn(C)nn2)cc1Nc1cc(F)cc(-c2ncccn2)c1OC [Example 93, 4-((5-fluoro-2-methoxy-3-(pyrimidin-2-yl)phenyl)amino)-N-(methyl-d3)-6-((1-methyl-1H-1,2,3-triazol-4-yl)amino)pyridazine-3-carboxamide] | 413 nM
9 | [2H]C([2H])([2H])NC(=O)c1nnc(Nc2cc(C(=O)N(C)C)n(C)n2)cc1Nc1cccc(-c2ncc(F)cn2)c1OC [Example 85, 6-((5-(dimethylcarbamoyl)-1-methyl-1H-pyrazol-3-yl)amino)-4-((3-(5-fluoropyrimidin-2-yl)-2-methoxyphenyl)amino)-N-(methyl-d3)pyridazine-3-carboxamide] | 43 nM

Continued by falling IC50, values first:

Row | IC50 | Structure (SMILES)
10 | 343 nM | [2H]C([2H])([2H])NC(=O)c1nnc(Nc2cnn(CC)n2)cc1Nc1cccc(-c2ncc(F)cn2)c1OC [Example 87, 6-((2-ethyl-2H-1,2,3-triazol-4-yl)amino)-4-((3-(5-fluoropyrimidin-2-yl)-2-methoxyphenyl)amino)-N-(methyl-d3)pyridazine-3-carboxamide]
11 | 144 nM | [2H]C([2H])([2H])NC(=O)c1nnc(NC(=O)C2CC2)cc1Nc1cccc(-c2nccc(C#N)n2)c1OC [Example 3, 4-((3-(4-cyanopyrimidin-2-yl)-2-methoxyphenyl)amino)-6-(cyclopropanecarboxamido)-N-(methyl-d3)pyridazine-3-carboxamide]
12 | 134 nM | [2H]C([2H])([2H])NC(=O)c1cnc(Nc2ccn(C3CC3)n2)cc1Nc1cccc(-c2ncc(F)cn2)c1OC [Example 68, 6-((1-cyclopropyl-1H-pyrazol-3-yl)amino)-4-((3-(5-fluoropyrimidin-2-yl)-2-methoxyphenyl)amino)-N-(methyl-d3)nicotinamide]
13 | 126 nM | [2H]C([2H])([2H])NC(=O)c1nnc(NC(=O)C2CC2)cc1Nc1cccc(-c2ncc(C(=O)N3CCCC3)cn2)c1OC [Example 47, 6-(cyclopropanecarboxamido)-4-((2-methoxy-3-(5-(pyrrolidine-1-carbonyl)pyrimidin-2-yl)phenyl)amino)-N-(methyl-d3)pyridazine-3-carboxamide]
14 | 112 nM | [2H]C([2H])([2H])NC(=O)c1nnc(Nc2ccc(C(F)(F)F)nn2)cc1Nc1cccc(-c2ncccn2)c1OC [Example 98, 4-((2-methoxy-3-(pyrimidin-2-yl)phenyl)amino)-N-(methyl-d3)-6-((6-(trifluoromethyl)pyridazin-3-yl)amino)pyridazine-3-carboxamide]
15 | 95 nM | [2H]C([2H])([2H])NC(=O)c1nnc(NC(=O)C2CC2)cc1Nc1cccc(-c2ncc(N3CCOCC3)cn2)c1OC [Example 13, 6-(cyclopropanecarboxamido)-4-((2-methoxy-3-(5-morpholinopyrimidin-2-yl)phenyl)amino)-N-(methyl-d3)pyridazine-3-carboxamide]
16 | 87 nM | [2H]C([2H])([2H])NC(=O)c1cnc(Nc2ccn(CC)n2)cc1Nc1cccc(-c2ncc(F)cn2)c1OC [Example 67, 6-((1-ethyl-1H-pyrazol-3-yl)amino)-4-((3-(5-fluoropyrimidin-2-yl)-2-methoxyphenyl)amino)-N-(methyl-d3)nicotinamide]
17 | 50 nM | [2H]C([2H])([2H])NC(=O)c1nnc(NC(=O)C2CC2)cc1Nc1cccc(-c2ncc(C(=O)N(C)C3CC3)cn2)c1OC [Example 52, 6-(cyclopropanecarboxamido)-4-((3-(5-(cyclopropyl(methyl)carbamoyl)pyrimidin-2-yl)-2-methoxyphenyl)amino)-N-(methyl-d3)pyridazine-3-carboxamide]
18 | 39 nM | [2H]C([2H])([2H])NC(=O)c1nnc(NC(=O)C2CC2)cc1Nc1cccc(-c2ncc(C(O)(CF)CF)cn2)c1OC [Example 29, 6-(cyclopropanecarboxamido)-4-((3-(5-(1,3-difluoro-2-hydroxypropan-2-yl)pyrimidin-2-yl)-2-methoxyphenyl)amino)-N-(methyl-d3)pyridazine-3-carboxamide]
19 | 36 nM | [2H]C([2H])([2H])NC(=O)c1nnc(NC(=O)C2CC2)cc1Nc1cccc(-c2ncc(N3CCOC3=O)cn2)c1OC [Example 113]
20 | 24 nM | [2H]C([2H])([2H])NC(=O)c1nnc(NC(=O)C2CC2)cc1Nc1cccc(-c2ncc(C3(O)CCOC3)cn2)c1OC (stereo not drawn) [Example 31, 6-(cyclopropanecarboxamido)-4-((3-(5-(3-hydroxytetrahydrofuran-3-yl)pyrimidin-2-yl)-2-methoxyphenyl)amino)-N-(methyl-d3)pyridazine-3-carboxamide]
21 | 16 nM | [2H]C([2H])([2H])NC(=O)c1nnc(NC(=O)C2CC2)cc1Nc1cccc(-c2ncc(C(C)(O)CF)cn2)c1OC (stereo not drawn) [Example 26, 6-(cyclopropanecarboxamido)-4-((3-(5-(1-fluoro-2-hydroxypropan-2-yl)pyrimidin-2-yl)-2-methoxyphenyl)amino)-N-(methyl-d3)pyridazine-3-carboxamide]
